ChEMBL document CHEMBL4387741, “Optimization of novel reversible Bruton's tyrosine kinase inhibitors identified using Tethering-fragment-based screens” (Bioorg Med Chem, 2019)
≈ marks a conversion by molar mass, not a printed value.

Assays:
[1] = target: Serine/threonine-protein kinase TNNI3K (Homo sapiens) (UniProt Q59H18); experiment: Inhibition of wild-type human full length TNNI3K (M1 to S835 residues) expressed in bacterial expression system at 1 uM by Kinomescan method relative to control
[2] = target: Platelet-derived growth factor receptor alpha (Homo sapiens) (UniProt P16234); experiment: Inhibition of wild-type human partial length PDGFRA (V575 to D1002 residues) expressed in mammalian expression system at 1 uM by Kinomescan method relative to control
[3] = Kinetic solubility of the compound at pH 1.5 by shake flask assay; assay type: physicochemical; details: buffer, read-out: Kinetic_solubility
[4] = target: Tyrosine-protein kinase HCK (Homo sapiens) (UniProt P08631); experiment: Inhibition of wild-type human full length HCK (M22 to P526 residues) expressed in bacterial expression system at 1 uM by Kinomescan method relative to control
[5] = target: Ribosomal protein S6 kinase alpha-4 (Homo sapiens) (UniProt O75676); experiment: Inhibition of wild-type human partial length N-terminal RPS6KA4 kinase domain 1 expressed in bacterial expression system at 1 uM by Kinomescan method relative to control
[6] = target: Serine/threonine-protein kinase MARK2 (Homo sapiens) (UniProt Q7KZI7); experiment: Inhibition of wild-type human partial length MARK2 (M1 to R450 residues) expressed in bacterial expression system at 1 uM by Kinomescan method relative to control
[7] = target: Serine/threonine-protein kinase DCLK2 (Homo sapiens) (UniProt Q8N568); experiment: Inhibition of wild-type human partial length DCAMKL2 (K273 to V664 residues) expressed in bacterial expression system at 1 uM by Kinomescan method relative to control
[8] = target: Calcium/calmodulin-dependent protein kinase type 1D (Homo sapiens) (UniProt Q8IU85); experiment: Inhibition of wild-type human partial length CAMK1D (M1 to K299 residues) expressed in bacterial expression system at 1 uM by Kinomescan method relative to control
[9] = target: Fibroblast growth factor receptor 2 (Homo sapiens) (UniProt P21802); experiment: Inhibition of wild-type human partial length FGFR2 (D457 to E769 residues) expressed in bacterial expression system at 1 uM by Kinomescan method relative to control
[10] = target: Rhodopsin kinase GRK7 (Homo sapiens) (UniProt Q8WTQ7); experiment: Inhibition of wild-type human full length GRK7 (M1 to L553 residues) expressed in mammalian expression system at 1 uM by Kinomescan method relative to control
[11] = target: Phosphorylase b kinase gamma catalytic chain, skeletal muscle/heart isoform (Homo sapiens) (UniProt Q16816); experiment: Inhibition of wild-type human full length PHKG1 (M1 to Y387 residues) expressed in bacterial expression system at 1 uM by Kinomescan method relative to control
[12] = target: Protein-tyrosine kinase 2-beta (Homo sapiens) (UniProt Q14289); experiment: Inhibition of wild-type human full length PYK2 (M1 to E967 residues) expressed in bacterial expression system at 1 uM by Kinomescan method relative to control
[13] = target: Mitogen-activated protein kinase 11 (Homo sapiens) (UniProt Q15759); experiment: Inhibition of wild-type human full length p38-beta (M1 to Q364 residues) expressed in bacterial expression system at 1 uM by Kinomescan method relative to control
[14] = target: Serine/threonine-protein kinase 36 (Homo sapiens) (UniProt Q9NRP7); experiment: Inhibition of wild-type human partial length STK36 (M1 to T271 residues) expressed in bacterial expression system at 1 uM by Kinomescan method relative to control
[15] = target: MAP/microtubule affinity-regulating kinase 4 (Homo sapiens) (UniProt Q96L34); experiment: Inhibition of wild-type human partial length MARK4 (K29 to G340 residues) expressed in bacterial expression system at 10 uM by Kinomescan method relative to control
[16] = target: Inhibitor of nuclear factor kappa-B kinase subunit beta (Homo sapiens) (UniProt O14920); experiment: Inhibition of wild-type human full length IKK-beta (M1 to S756 residues) expressed in mammalian expression system at 10 uM by Kinomescan method relative to control
[17] = target: Interleukin-1 receptor-associated kinase 1 (Homo sapiens) (UniProt P51617); experiment: Inhibition of wild-type human partial length IRAK1 (R194 to S712 residues) expressed in mammalian expression system at 10 uM by Kinomescan method relative to control
[18] = target: Non-receptor tyrosine-protein kinase TYK2 (Homo sapiens) (UniProt P29597); experiment: Inhibition of wild-type human partial length TYK2 JH1 catalytic domain (V877 to C1187 residues) expressed in mammalian expression system at 10 uM by Kinomescan method relative to control
[19] = target: MAP kinase-activated protein kinase 2 (Homo sapiens) (UniProt P49137); experiment: Inhibition of wild-type human partial length MAPKAPK2 (V48 to D345 residues) expressed in bacterial expression system at 10 uM by Kinomescan method relative to control
[20] = test system: Epidermal growth factor receptor (Homo sapiens), P00533 [UNDEFINED MUTATION]; experiment: Inhibition of human partial length EGFR E746-A750del mutant expressed in bacterial expression system at 10 uM by Kinomescan method relative to control
[21] = target: Cyclin-dependent kinase 2 homolog (Plasmodium falciparum (isolate 3D7)) (UniProt P61075); experiment: Inhibition of wild-type Plasmodium falciparum full length PK5 (M1 to N288 residues) expressed in mammalian expression system at 10 uM by Kinomescan method relative to control
[22] = target: Calcium/calmodulin-dependent protein kinase type 1G (Homo sapiens) (UniProt Q96NX5); experiment: Inhibition of wild-type human partial length CAMK1G (M1 to A342 residues) expressed in bacterial expression system at 10 uM by Kinomescan method relative to control
[23] = target: Serine/threonine-protein kinase PLK4 (Homo sapiens) (UniProt O00444); experiment: Inhibition of wild-type human partial length PLK4 (M1 to S273 residues) expressed in mammalian expression system at 10 uM by Kinomescan method relative to control
[24] = target: Serine/threonine-protein kinase 32B (Homo sapiens) (UniProt Q9NY57); experiment: Inhibition of wild-type human full length YANK2 (M1 to S414 residues) expressed in bacterial expression system at 10 uM by Kinomescan method relative to control
[25] = target: SRSF protein kinase 3 (Homo sapiens) (UniProt Q9UPE1); experiment: Inhibition of wild-type human partial length SRPK3 (P41 to P567 residues) expressed in bacterial expression system at 10 uM by Kinomescan method relative to control
[26] = target: Cyclin-dependent kinase 4 (Homo sapiens) (UniProt P11802); experiment: Inhibition of wild-type human full length CDK4 (M1 to E303 residues) expressed in mammalian expression system at 10 uM by Kinomescan method relative to control
[27] = target: TGF-beta receptor type-2 (Homo sapiens) (UniProt P37173); experiment: Inhibition of wild-type human partial length TGFBR2 (I218 to K567 residues) expressed in bacterial expression system at 10 uM by Kinomescan method relative to control
TGF-beta receptor type-2 (Homo sapiens), sequence (P37173 whole entry, the tested form may be a part): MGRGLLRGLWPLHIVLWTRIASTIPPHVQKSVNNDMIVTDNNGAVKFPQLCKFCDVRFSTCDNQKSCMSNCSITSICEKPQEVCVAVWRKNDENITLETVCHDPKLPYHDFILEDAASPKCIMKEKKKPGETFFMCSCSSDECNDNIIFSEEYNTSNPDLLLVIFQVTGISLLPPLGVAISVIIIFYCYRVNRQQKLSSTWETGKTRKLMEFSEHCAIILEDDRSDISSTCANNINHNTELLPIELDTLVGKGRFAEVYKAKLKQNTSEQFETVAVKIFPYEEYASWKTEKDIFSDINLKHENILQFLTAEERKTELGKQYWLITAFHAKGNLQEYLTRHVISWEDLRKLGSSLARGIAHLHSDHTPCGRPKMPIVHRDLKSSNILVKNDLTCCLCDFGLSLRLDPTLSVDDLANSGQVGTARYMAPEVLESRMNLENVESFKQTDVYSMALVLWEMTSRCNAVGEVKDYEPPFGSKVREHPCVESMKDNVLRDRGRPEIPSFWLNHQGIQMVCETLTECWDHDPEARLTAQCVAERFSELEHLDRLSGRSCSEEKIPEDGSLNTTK

Calcium/calmodulin-dependent protein kinase type 1G (Homo sapiens), sequence (Q96NX5 whole entry, the tested form may be a part): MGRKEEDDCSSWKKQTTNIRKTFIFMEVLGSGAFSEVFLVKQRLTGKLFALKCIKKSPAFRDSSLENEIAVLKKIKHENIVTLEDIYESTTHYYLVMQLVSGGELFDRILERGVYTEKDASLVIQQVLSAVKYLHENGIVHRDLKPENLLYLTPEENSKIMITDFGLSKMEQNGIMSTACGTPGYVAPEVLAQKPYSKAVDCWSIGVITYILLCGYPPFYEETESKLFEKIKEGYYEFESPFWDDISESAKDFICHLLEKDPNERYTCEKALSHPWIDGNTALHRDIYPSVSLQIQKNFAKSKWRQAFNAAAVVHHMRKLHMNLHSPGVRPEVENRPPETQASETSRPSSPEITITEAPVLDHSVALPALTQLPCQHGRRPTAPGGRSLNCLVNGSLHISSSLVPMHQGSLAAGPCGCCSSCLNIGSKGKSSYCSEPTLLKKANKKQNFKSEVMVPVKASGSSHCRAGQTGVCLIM
Calcium/calmodulin-dependent protein kinase type 1D (Homo sapiens), sequence (Q8IU85 whole entry, looked up, the tested form may be a part): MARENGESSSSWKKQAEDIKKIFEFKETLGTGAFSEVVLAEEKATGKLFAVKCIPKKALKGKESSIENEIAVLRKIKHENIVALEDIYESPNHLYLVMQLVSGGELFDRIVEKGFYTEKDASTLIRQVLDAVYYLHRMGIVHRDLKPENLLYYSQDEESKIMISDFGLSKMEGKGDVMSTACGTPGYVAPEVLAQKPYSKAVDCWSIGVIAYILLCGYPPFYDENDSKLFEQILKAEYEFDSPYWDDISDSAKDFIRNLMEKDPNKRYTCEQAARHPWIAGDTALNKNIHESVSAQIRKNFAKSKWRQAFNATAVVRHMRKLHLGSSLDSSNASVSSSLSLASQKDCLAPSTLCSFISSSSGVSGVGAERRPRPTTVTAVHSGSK
Serine/threonine-protein kinase MARK2 (Homo sapiens), sequence (Q7KZI7 whole entry, the tested form may be a part): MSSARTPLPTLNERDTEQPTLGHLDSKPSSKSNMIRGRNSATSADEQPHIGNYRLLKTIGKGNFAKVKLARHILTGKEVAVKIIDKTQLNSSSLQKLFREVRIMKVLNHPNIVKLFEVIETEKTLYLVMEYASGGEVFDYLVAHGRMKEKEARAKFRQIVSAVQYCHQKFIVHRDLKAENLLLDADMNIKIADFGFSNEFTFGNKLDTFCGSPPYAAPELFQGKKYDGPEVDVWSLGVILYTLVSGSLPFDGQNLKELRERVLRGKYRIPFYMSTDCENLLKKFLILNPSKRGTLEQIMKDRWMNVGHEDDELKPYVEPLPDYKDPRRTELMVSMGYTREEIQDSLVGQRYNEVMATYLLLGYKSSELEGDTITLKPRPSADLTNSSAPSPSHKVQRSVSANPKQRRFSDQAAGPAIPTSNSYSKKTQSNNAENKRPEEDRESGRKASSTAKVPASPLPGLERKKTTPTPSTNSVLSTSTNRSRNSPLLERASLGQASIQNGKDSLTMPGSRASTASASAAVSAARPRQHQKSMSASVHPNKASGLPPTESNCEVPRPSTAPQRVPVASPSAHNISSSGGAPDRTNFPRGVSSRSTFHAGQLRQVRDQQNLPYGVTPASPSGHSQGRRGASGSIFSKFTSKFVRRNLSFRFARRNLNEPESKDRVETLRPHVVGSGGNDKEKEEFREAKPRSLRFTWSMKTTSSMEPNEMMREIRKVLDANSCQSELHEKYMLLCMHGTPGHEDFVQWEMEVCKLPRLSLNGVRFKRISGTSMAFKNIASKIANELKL
Fibroblast growth factor receptor 2 (Homo sapiens), sequence (P21802 22-821 limits assumed): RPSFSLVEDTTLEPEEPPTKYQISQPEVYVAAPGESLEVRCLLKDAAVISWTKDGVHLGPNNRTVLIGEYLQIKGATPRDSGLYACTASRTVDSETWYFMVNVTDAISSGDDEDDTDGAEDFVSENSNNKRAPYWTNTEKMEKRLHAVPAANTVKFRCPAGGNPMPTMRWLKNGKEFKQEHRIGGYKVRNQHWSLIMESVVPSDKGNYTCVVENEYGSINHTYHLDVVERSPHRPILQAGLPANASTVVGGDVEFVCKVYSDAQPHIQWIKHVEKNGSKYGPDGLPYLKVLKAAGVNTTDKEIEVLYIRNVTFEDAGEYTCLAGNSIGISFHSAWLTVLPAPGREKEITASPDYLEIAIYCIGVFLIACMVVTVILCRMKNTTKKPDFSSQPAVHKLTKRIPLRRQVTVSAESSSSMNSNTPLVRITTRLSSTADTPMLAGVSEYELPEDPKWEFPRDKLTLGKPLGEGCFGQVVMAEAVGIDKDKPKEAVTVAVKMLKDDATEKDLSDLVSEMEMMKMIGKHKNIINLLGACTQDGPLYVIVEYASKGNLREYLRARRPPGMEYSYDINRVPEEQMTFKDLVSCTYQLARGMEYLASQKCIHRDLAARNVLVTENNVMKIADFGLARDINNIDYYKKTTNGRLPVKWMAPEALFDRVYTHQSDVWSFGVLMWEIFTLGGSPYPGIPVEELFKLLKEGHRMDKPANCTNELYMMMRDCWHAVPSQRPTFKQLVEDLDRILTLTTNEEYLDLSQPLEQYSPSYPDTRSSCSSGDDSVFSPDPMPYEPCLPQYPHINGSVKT
Rhodopsin kinase GRK7 (Homo sapiens), sequence (Q8WTQ7 whole entry, the tested form may be a part, canonical isoform): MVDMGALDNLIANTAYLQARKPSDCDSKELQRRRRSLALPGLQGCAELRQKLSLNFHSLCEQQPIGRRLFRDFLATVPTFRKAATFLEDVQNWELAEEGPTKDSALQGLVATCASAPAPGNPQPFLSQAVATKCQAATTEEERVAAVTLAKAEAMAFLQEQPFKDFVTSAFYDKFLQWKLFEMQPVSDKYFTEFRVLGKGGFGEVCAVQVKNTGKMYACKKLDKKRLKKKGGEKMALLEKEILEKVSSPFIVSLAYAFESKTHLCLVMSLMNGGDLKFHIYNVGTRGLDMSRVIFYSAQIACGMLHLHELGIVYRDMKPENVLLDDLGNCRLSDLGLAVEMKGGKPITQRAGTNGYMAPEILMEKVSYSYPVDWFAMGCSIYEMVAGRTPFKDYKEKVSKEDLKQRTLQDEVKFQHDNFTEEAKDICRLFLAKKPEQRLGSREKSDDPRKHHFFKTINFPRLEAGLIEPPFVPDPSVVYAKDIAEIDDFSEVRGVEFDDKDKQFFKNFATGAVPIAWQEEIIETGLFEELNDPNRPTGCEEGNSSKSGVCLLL
Cyclin-dependent kinase 2 homolog (Plasmodium falciparum (isolate 3D7)), sequence (P61075 whole entry, the tested form may be a part): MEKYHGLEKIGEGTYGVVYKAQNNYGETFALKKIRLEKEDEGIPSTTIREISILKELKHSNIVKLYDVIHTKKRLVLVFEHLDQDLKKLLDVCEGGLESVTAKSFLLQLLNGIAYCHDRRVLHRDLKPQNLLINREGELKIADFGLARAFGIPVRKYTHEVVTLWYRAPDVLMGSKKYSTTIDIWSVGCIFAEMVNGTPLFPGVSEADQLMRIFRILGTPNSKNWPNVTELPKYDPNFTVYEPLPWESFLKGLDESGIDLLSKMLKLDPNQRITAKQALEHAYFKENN
Cyclin-dependent kinase 4 (Homo sapiens), sequence (P11802 whole entry, the tested form may be a part): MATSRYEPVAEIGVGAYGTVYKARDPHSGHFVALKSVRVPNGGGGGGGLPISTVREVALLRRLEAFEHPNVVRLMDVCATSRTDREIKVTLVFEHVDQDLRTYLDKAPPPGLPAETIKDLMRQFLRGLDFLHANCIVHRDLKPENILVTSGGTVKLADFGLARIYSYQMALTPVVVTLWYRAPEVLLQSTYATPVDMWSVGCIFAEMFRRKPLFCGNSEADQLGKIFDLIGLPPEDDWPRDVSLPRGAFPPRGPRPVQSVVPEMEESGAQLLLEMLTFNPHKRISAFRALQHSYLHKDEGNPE
MAP/microtubule affinity-regulating kinase 4 (Homo sapiens), sequence (Q96L34 whole entry, the tested form may be a part): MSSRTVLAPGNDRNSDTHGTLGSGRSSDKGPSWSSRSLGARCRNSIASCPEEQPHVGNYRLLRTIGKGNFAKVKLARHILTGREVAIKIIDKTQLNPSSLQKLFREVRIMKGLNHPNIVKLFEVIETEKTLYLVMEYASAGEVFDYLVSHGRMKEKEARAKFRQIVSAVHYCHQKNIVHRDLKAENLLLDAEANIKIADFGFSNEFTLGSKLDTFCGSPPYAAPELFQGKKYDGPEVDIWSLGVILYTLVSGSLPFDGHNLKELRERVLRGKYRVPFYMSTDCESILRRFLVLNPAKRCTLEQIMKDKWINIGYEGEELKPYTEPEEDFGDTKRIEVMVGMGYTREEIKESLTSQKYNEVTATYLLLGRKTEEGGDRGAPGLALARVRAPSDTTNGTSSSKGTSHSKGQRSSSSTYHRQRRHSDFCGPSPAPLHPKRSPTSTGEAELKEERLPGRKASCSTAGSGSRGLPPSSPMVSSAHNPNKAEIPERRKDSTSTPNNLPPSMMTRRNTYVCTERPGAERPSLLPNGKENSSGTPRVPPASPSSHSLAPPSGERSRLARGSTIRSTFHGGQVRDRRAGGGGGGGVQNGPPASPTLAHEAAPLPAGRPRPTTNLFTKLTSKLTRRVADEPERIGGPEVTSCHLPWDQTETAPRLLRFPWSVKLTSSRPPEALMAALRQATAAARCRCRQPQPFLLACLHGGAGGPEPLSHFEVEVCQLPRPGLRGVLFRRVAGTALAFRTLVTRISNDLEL

## O=C(Nc1cccc([C@@H]2CN(c3ncnc4[nH]ccc34)CCN2CCO)c1)Nc1c(F)cccc1N1CCCC1
[1]
  inhibition: 100%
[2]
  inhibition: 85%
[3]
  solubility kinetic: 94 µg/mL (≈ 173 µM)
[4]
  inhibition: 76%
[5]
  inhibition: 94%
[6]
  inhibition: 69%
[7]
  inhibition: 99%
[8]
  inhibition: 100%
[9]
  inhibition: 54%
[10]
  inhibition: 99%
[11]
  inhibition: 98%
[12]
  inhibition: 84%
[13]
  inhibition: 92%
[14]
  inhibition: 100%

## O=C(Nc1cccc([C@H]2CCCN(c3ncnc4[nH]ccc34)C2)c1)Nc1ccccc1N1CCCC1
[15]
  inhibition: 87%
[16]
  inhibition: 25%
[17]
  inhibition: 80%
[18]
  inhibition: 0.6%
[19]
  inhibition: 100%
[20]
  inhibition: 75%
[21]
  inhibition: 93%
[22]
  inhibition: 85%
[23]
  inhibition: 4.9%
[24]
  inhibition: 100%
[25]
  inhibition: 9%
[26]
  inhibition: 100%
[27]
  inhibition: 100%
